Experimental data published in patent publication US12685312B2, “Sulfonamide apyrase inhibitors” (Texas Crop Science, Inc., priority 2022, dated 2026).

Assays:
apyrase = assay: Screen for apyrase inhibitors (Method 1, in vitro phosphate-release absorbance assay); assay type: biochemical; settings: inhibitor conc at 1 mM stock, 1 hr room temperature, absorbance 630 nm; rounded average of two assay results
Outline: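 Phosphate-release colorimetric assay (Windsor method) in 60 mM Hepes, 3 mM MgCl2, 3 mM CaCl2, 3 mM ATP, pH 6.5, with compound or DMSO control added. Released phosphate developed with ammonium molybdate and ascorbic acid/TCA, then stopped with citrate/acetic acid.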

[1] = tested on: plant pathogenic fungi (Zymoseptoria tritici strains, Microdochium nivale); assay: In vitro combination assay (Method 2), overall comparison with Roux Compound 13; assay type: cell-based; settings: azoxystrobin, fluxapyroxad, desthio prothioconazole; three fungal strains
Method: (§1) Method 2: In Vitro Assessment of Combination Activity
(§2) Selected compounds were assessed in combination with fungicides against a range of commercially important plant pathogenic fungi.
(§3) The test was conducted as follows. A fungicide was applied to a fungal plant pathogen at a rate slightly below that at which it gave any control, in combination with a suitable dose of the test compound. The test compound was recorded as active if control of the pathogen was observed.
(§4) In more detail, the test was conducted as follows. For each combination of fungicide, pathogen and test compound, the following wells were used. Well 1 contained a fungal pathogen growing on agar, and a fungicide at a rate just below that at which it gave any control of the pathogen. Well 2 was the same as Well 1, except that the test compound was also added at Rate 1. Well 3 was the same as Well 2, except that the test compound was added at Rate 2, where Rate 2 was higher than Rate 1. Finally, as a benchmark, Well 4 was the same as Well 1, except that it contained the fungicide at a higher rate, at which it gave partial control of the pathogen. Each of the Wells 1 to 4 were run in duplicate, giving a total of 8 wells for each combination of fungicide, pathogen and test compound. For each well, after a suitable period of incubation, a visual assessment of the % control of the pathogen by the fungicide was made.
(§5) The following fungicides were used in this assay: azoxystrobin, fluxapyroxad, and desthio prothioconazole. The following fungal pathogens were used in this assay: First, a strain of Zymoseptoria tritici with a reduced susceptibility to strobilurin fungicides; second a strain of Zymoseptoria tritici with a reduced susceptibility to SDHI fungicides (i.e., those that inhibit succinate dehydrogenase); and third, Microdochium nivale.

[2] = tested on: Botrytis cinerea on tomatoes; assay: Greenhouse crop test (Method 3), Botrytis cinerea on tomatoes; assay type: in vivo; settings: Botrytis cinerea on tomato, Imtrex 0.005 L/ha
Method: (§6) Method 3: Greenhouse Crop Tests
In this method, exemplary compounds were evaluated for their ability to control Zymoseptoria tritici on wheat, Botrytis cinerea on tomatoes, Asian Soya Rust (Phakopsora pachyrhizi) on soybean, and Brown Rust (Puccinia recondita) on wheat, in a controlled greenhouse environment in combination with one of four fungicides, Amistar, Imtrex, Proline or Balaya. In these studies, soybean cultivar Siverka, tomato (Money maker) and wheat plants (JB Diego) were used. Seeds were sown in 9 cm diameter pots to a depth of 1 to 2 cm using Petersfield potting compost (75% medium grade peat, 12% screened sterilized loam, 3% medium grade vermiculite, 10% grit (5 mm screened, lime free), 1.5 kg PG mix per m3, lime to pH5.5-6.0 and wetting agent (Vitax Ultrawet 200 ml per m3) and germinated/grown at 23 C under a 16 h day/8 h night light regime. Plants were treated two to three weeks after sowing when they were at the BBCH 11 growth stage (first pair of true leaves (unifoliate) unfolded. A track sprayer was used to treat the plants with the mixture of commercial fungicide and test compound using a water volume of 200 L/ha. Plants were inoculated with the appropriate fungi (pathogen) 24 hours after treatment. Fungal pathogens used were Botrytis cinerea (Grey mold on tomato plants), Zymoseptoria tritici (Septoria leaf blotch on wheat plants), Puccinia triticina (Brown rust on wheat plants) and Phakopsora pachyrhizi (Asian soy rust on soybean plants). Four replicates were used for each combination of fungicide, pathogen and test compound. Each plant was evaluated once the disease symptoms were fully expressed between seven to twenty days (depending on the pathogen) for % control of the disease. Appropriate controls were used for all experiments, including an ‘inoculation check’ wherein plants were inoculated with their specific pathogen to assess disease levels. Also, each commercial fungicide was tested on its own as a part of each treatment, this being benchmark against which the experimental compounds were evaluated. […]

Microdochium nivale = assay: In vitro assessment of combination activity with fungicides (Method 2); assay type: cell-based; settings: fungicide at a rate just below that giving any control; visual % control;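 note: scored as inactive active or highly active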
Method: as §1, §2, §3, §4, §5

[3] = tested on: Zymoseptoria tritici with a reduced susceptibility to strobilurin fungicides; assay: as above; assay type: cell-based; settings: fungicide at a rate just below that giving any control; visual % control;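 note: scored as inactive active or highly active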
Method: as §1, §2, §3, §4, §5

[4] = tested on: Zymoseptoria tritici with a reduced susceptibility to SDHI fungicides; assay: as above; assay type: cell-based; settings: fungicide at a rate just below that giving any control; visual % control;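 note: scored as inactive active or highly active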
Method: as §1, §2, §3, §4, §5

[5] = tested on: Zymoseptoria tritici on wheat; assay: Greenhouse crop test (Method 3), Zymoseptoria tritici on wheat; assay type: in vivo; settings: for enhancement of Imtrex over Imtrex alone: Imtrex 0.02 L/ha
Method: as §6
In this method, exemplary compounds were evaluated for their ability to control Zymoseptoria tritici on wheat, Botrytis cinerea on tomatoes, Asian Soya Rust (Phakopsora pachyrhizi) on soybean, and Brown Rust (Puccinia recondita) on wheat, in a controlled greenhouse environment in combination with one of four fungicides, Amistar, Imtrex, Proline or Balaya. In these studies, soybean cultivar Siverka, tomato (Money maker) and wheat plants (JB Diego) were used. Seeds were sown in 9 cm diameter pots to a depth of 1 to 2 cm using Petersfield potting compost (75% medium grade peat, 12% screened sterilized loam, 3% medium grade vermiculite, 10% grit (5 mm screened, lime free), 1.5 kg PG mix per m3, lime to pH5.5-6.0 and wetting agent (Vitax Ultrawet 200 ml per m3) and germinated/grown at 23 C under a 16 h day/8 h night light regime. Plants were treated two to three weeks after sowing when they were at the BBCH 11 growth stage (first pair of true leaves (unifoliate) unfolded. A track sprayer was used to treat the plants with the mixture of commercial fungicide and test compound using a water volume of 200 L/ha. Plants were inoculated with the appropriate fungi (pathogen) 24 hours after treatment. Fungal pathogens used were Botrytis cinerea (Grey mold on tomato plants), Zymoseptoria tritici (Septoria leaf blotch on wheat plants), Puccinia triticina (Brown rust on wheat plants) and Phakopsora pachyrhizi (Asian soy rust on soybean plants). Four replicates were used for each combination of fungicide, pathogen and test compound. Each plant was evaluated once the disease symptoms were fully expressed between seven to twenty days (depending on the pathogen) for % control of the disease. Appropriate controls were used for all experiments, including an ‘inoculation check’ wherein plants were inoculated with their specific pathogen to assess disease levels. Also, each commercial fungicide was tested on its own as a part of each treatment, this being benchmark against which the experimental compounds were evaluated. […] That is, the present compounds, although not fungicidal by themselves, enhance the activity of fungicides, thus the enhancer compounds work synergistically in combination with fungicides to control disease.
In these studies the fungicide was applied at the following rates

In the case of `Cc1cc(NC(=O)c2cccc(NS(=O)(=O)c3ccc(F)c(F)c3)c2)ccc1Br` [I-191, N-(4-bromo-3-methylphenyl)-3-((3,4-difluorophenyl)sulfonamido)benzamide], the “% Inhibition of Apyrase” value (apyrase) is reported as 76% and the “enhancer activity in the combination assay compared with Roux Compound 13” value [1] is reported as “superior enhancer activity than Roux Compound 13”.
`O=C(Nc1ccc(Br)cc1)c1cccc(S(=O)(=O)Nc2ccc3c(c2)OCO3)c1` [I-201, 3-(N-(benzo[d][1,3]dioxol-5-yl)sulfamoyl)-N-(4-bromophenyl)benzamide] was tested, and the “% Inhibition of Apyrase” value (apyrase) was 77% and the “enhancer activity in the combination assay compared with Roux Compound 13” value [1] was “superior enhancer activity than Roux Compound 13”.
For `Cc1ccc(C(=O)Nc2cccc(NS(=O)(=O)c3ccccc3)c2)cc1F` [I-209, 3-fluoro-4-methyl-N-(3-(phenylsulfonamido)phenyl)benzamide], the “% Inhibition of Apyrase” value (apyrase) was 75% and the “enhancer activity in the combination assay compared with Roux Compound 13” value [1] was “superior enhancer activity than Roux Compound 13”.
In the case of `O=C(Nc1ccc2c(c1)OCO2)c1ccccc1NS(=O)(=O)c1cccc(C(F)(F)F)c1` [I-213, N-(benzo[d][1,3]dioxol-5-yl)-2-((3-(trifluoromethyl)phenyl)sulfonamido) benzamide], the “% Inhibition of Apyrase” value (apyrase) is reported as 71%, the “enhancement in combination with Imtrex over Imtrex alone” value [2] is reported as “about 30%” and the “enhancer activity in the combination assay compared with Roux Compound 13” value [1] is reported as “superior enhancer activity than Roux Compound 13”.
With `O=C(Nc1cccc(C(F)(F)F)c1)c1cccc(NS(=O)(=O)c2cccc(C(F)(F)F)c2)c1` [I-217, N-(3-(trifluoromethyl)phenyl)-3-((3-(trifluoromethyl)phenyl)sulfonamido) benzamide] the “% Inhibition of Apyrase” value (apyrase) was 70% and the “enhancer activity in the combination assay compared with Roux Compound 13” value [1] was “superior enhancer activity than Roux Compound 13”.
With `O=C(Nc1cccc(S(=O)(=O)Nc2ccc(Br)cc2)c1)C1CCCCC1` [I-219, N-(3-(N-(4-bromophenyl)sulfamoyl)phenyl) cyclohexanecarboxamide] the “% Inhibition of Apyrase” value (apyrase) was 73% and the “enhancer activity in the combination assay compared with Roux Compound 13” value [1] was “superior enhancer activity than Roux Compound 13”.
For `O=C(Nc1cccc(S(=O)(=O)Nc2ccc(Br)cc2)c1)c1ccc(Cl)nc1` [I-221, N-(3-(N-(4-bromophenyl)sulfamoyl)phenyl)-6-chloronicotinamide], the “% Inhibition of Apyrase” value (apyrase) was 67% and the “enhancer activity in the combination assay compared with Roux Compound 13” value [1] was “superior enhancer activity than Roux Compound 13”.
In the case of `O=C(/C=C/c1ccco1)Nc1cccc(S(=O)(=O)Nc2ccc(Br)cc2)c1` [I-226, (E)-N-(3-(N-(4-bromophenyl)sulfamoyl)phenyl)-3-(furan-2-yl)acrylamide], the “% Inhibition of Apyrase” value (apyrase) is reported as 73% and the “enhancer activity in the combination assay compared with Roux Compound 13” value [1] is reported as “superior enhancer activity than Roux Compound 13”.
In the case of `N#Cc1ccccc1S(=O)(=O)Nc1cccc(C(=O)Nc2cccc(C(F)(F)F)c2)c1` [I-229, 3-((2-cyanophenyl)sulfonamido)-N-(3-(trifluoromethyl)phenyl)benzamide], the “% Inhibition of Apyrase” value (apyrase) is reported as 66% and the “enhancer activity in the combination assay compared with Roux Compound 13” value [1] is reported as “superior enhancer activity than Roux Compound 13”.
`COC(=O)c1ccc(NC(=O)c2ccccc2S(=O)(=O)N(C)c2ccccc2)cc1` [I-233, methyl 4-(2-(N-methyl-N-phenylsulfamoyl)benzamido)benzoate] was tested, and the “% Inhibition of Apyrase” value (apyrase) was 61% and the “enhancer activity in the combination assay compared with Roux Compound 13” value [1] was “superior enhancer activity than Roux Compound 13”.
With `O=C(Nc1cccc(NS(=O)(=O)c2ccc(Br)cc2Cl)c1)c1ccco1` [I-234, N-(3-((4-bromo-2-chlorophenyl)sulfonamido)phenyl)furan-2-carboxamide] the “enhancement of activity of desthio prothioconazole” value (Microdochium nivale) was “enhancing fungicidal activity”, the “enhancement of activity of fluxapyroxad” value (Microdochium nivale) was “enhancing fungicidal activity” and the “enhancement of activity of desthio prothioconazole” value [3] was “enhancing fungicidal activity”. For the same compound, the “enhancement of activity of desthio prothioconazole” value [4] was “enhancing fungicidal activity”, the “enhancement of activity of fluxapyroxad” value [4] was “enhancing fungicidal activity” and the “% Inhibition of Apyrase” value (apyrase) was 66%. The “enhancer activity in the combination assay compared with Roux Compound 13” value [1] was “superior enhancer activity than Roux Compound 13”.
In the case of `O=C(Nc1cccc(-c2ccn[nH]2)c1)c1cccc(S(=O)(=O)Nc2ccc(Br)cc2)c1` [I-239, N-(3-(1H-pyrazol-5-yl)phenyl)-3-(N-(4-bromophenyl)sulfamoyl)benzamide], the “enhancement of Imtrex over Imtrex alone” value [5] is reported as “about 30%”, the “% Inhibition of Apyrase” value (apyrase) is reported as 73% and the “enhancer activity in the combination assay compared with Roux Compound 13” value [1] is reported as “superior enhancer activity than Roux Compound 13”.
In the case of `O=C(Nc1cccc(C(F)(F)F)c1)c1cccc(NS(=O)(=O)c2cccc(Cl)c2)c1` [I-317, 3-((3-chlorophenyl)sulfonamido)-N-(3-(trifluoromethyl)phenyl)benzamide], the “% Inhibition of Apyrase” value (apyrase) is reported as 69% and the “enhancer activity in the combination assay compared with Roux Compound 13” value [1] is reported as “superior enhancer activity than Roux Compound 13”.
With `Cc1ccc(NS(=O)(=O)c2ccc(C(=O)N3CCc4ccccc43)cc2)cc1` [I-385, 4-(indoline-1-carbonyl)-N-(p-tolyl)benzenesulfonamide] the “enhancement of Imtrex over Imtrex alone” value [5] was “greater than 40%” and the “% Inhibition of Apyrase” value (apyrase) was 65%.
For `NS(=O)(=O)c1cccc(NC(=O)c2ccc(S(=O)(=O)Nc3ccc(Cl)cc3)cc2)c1` [I-387, 4-(N-(4-chlorophenyl)sulfamoyl)-N-(3-sulfamoylphenyl)benzamide], the “% Inhibition of Apyrase” value (apyrase) was 65% and the “enhancement in combination with Imtrex over Imtrex alone” value [2] was “about 30%”.
For `O=C(Nc1ccc2c(c1)OCO2)c1ccc(S(=O)(=O)Nc2ccccc2Cl)cc1` [I-388, N-(benzo[d][1,3]dioxol-5-yl)-4-(N-(2-chlorophenyl)sulfamoyl)benzamide], the “enhancement of Balaya” value ([5]; Balaya 0.0015 L/ha) was “greater than 45%” and the “% Inhibition of Apyrase” value (apyrase) was 63%.
For `O=C(Nc1ccccc1)c1ccc(S(=O)(=O)Nc2ccccc2)cc1` [I-392, N-phenyl-4-(N-phenylsulfamoyl)benzamide], the “enhancement of activity of desthio prothioconazole” value (Microdochium nivale) was “highly active”, the “enhancement of activity of azoxystrobin” value [3] was “enhanced the activity” and the “enhancement of activity of desthio prothioconazole” value [3] was “highly active”. For the same compound, the “enhancement of activity of azoxystrobin” value [4] was “enhanced the activity”, the “enhancement of activity of desthio prothioconazole” value [4] was “highly active” and the “% Inhibition of Apyrase” value (apyrase) was 59%.
In the case of `COc1cc(Cl)c(C)cc1NC(=O)c1ccccc1S(=O)(=O)N(C)c1ccccc1` [I-807, N-(4-chloro-2-methoxy-5-methylphenyl)-2-(N-methyl-N-phenylsulfamoyl)benzamide], the “% Inhibition of Apyrase” value (apyrase) is reported as 82% and the “enhancer activity in the combination assay compared with Roux Compound 13” value [1] is reported as “superior enhancer activity than Roux Compound 13”.
In the case of `O=C(Nc1cccc([N+](=O)[O-])c1)c1cccc(S(=O)(=O)Nc2ccc(Br)cc2)c1` [Roux compound 13, reference compound], the “enhancement of activity of azoxystrobin” value (Microdochium nivale) is reported as “enhancing the activity”, the “enhancement of activity of azoxystrobin” value [3] is reported as “failing to enhance activity” and the “enhancement of activity of desthio prothioconazole” value [3] is reported as “failing to enhance activity”. The “enhancement of activity of fluxapyroxad” value [3] was “failing to enhance activity”, the “enhancement of activity of azoxystrobin” value [4] was “failing to enhance activity” and the “enhancement of activity of desthio prothioconazole” value [4] was “failing to enhance activity”. The “enhancement of activity of fluxapyroxad” value [4] was “failing to enhance activity” and the “enhancer activity in the combination assay compared with Roux Compound 13” value [1] was “little or no activity”.
